Patent US9232796B2, “Herbicidal compositions comprising 4-amino-3-chloro-5-fluoro-6-(4-chloro-2-fluoro-3-methoxyphenyl) pyridine-2-carboxylic acid or a derivative thereof and acetyl-CoA carboxylase (ACCase) inhibitors” (DOW AGROSCIENCES LLC, priority 2012, dated 2016)

Legend:
[1] = system: PHAMI; experiment: Example IV postemergence foliar-applied, greenhouse, cereal crops weeds; type: in vivo, Phalaris minor Retz.
Procedure: Seeds of the desired test plant species were planted in Sun Gro MetroMix® 306 planting mixture, which typically has a pH of 6.0 to 6.8 and an organic matter content of about 30 percent, in plastic pots with a surface area of 103.2 square centimeters (cm^2). […] The plants were grown for 7-36 days in a greenhouse with an approximate 14 hour photoperiod which was maintained at about 18° C. during the day and about 17° C. during the night. Nutrients and water were added on a regular basis and supplemental lighting was provided with overhead metal halide 1000-Watt lamps as necessary. The plants were employed for testing when they reached the second or third true leaf stage.
Treatments consisted of the benzyl ester of 4-amino-3-chloro-5-fluoro-6-(4-chloro-2-fluoro-3-methoxy-phenyl)pyridine-2-carboxylic acid (Compound A), formulated as an SC, a second cereal herbicide alone and then both in combination.
Other herbicidal components were applied on an active ingredient basis and included acetyl-CoA carboxylase (ACCase)-inhibiting herbicides clodinafop-propargyl, fenoxaprop-P-ethyl, pinoxaden and tralkoxydim.
Measured aliquots of benzyl ester of 4-amino-3-chloro-5-fluoro-6-(4-chloro-2-fluoro-3-methoxy-phenyl)pyridine-2-carboxylic acid (Compound A) were placed in 25 milliliter (mL) glass vials and diluted in a volume of 1.25% (v/v) Agri-Dex® crop oil concentrate to obtain stock solutions. Compound requirements are based upon a 12 mL application volume at a rate of 187 liters per hectare (L/ha). […] Formulated compounds were applied to the plant material with an overhead Mandel track sprayer equipped with an 8002E nozzle calibrated to deliver 187 L/ha over an application area of 0.503 square meters (m^2) at a spray height of 18 inches (46 cm) above average plant canopy. Control plants were sprayed in the same manner with the solvent blank.
(§1) The treated plants and control plants were placed in a greenhouse as described above and watered by sub-irrigation to prevent wash-off of the test compounds. After 20-22 days, the condition of the test plants as compared with that of the control plants was determined visually and scored on a scale of 0 to 100 percent where 0 corresponds to no injury and 100 corresponds to complete kill.
Colby's equation was used to determine the herbicidal effects expected from the mixtures (Colby, S. R. 1967. Calculation of the synergistic and antagonistic response of herbicide combinations. Weeds 15:20-22.).
The following equation was used to calculate the expected activity of mixtures containing two active ingredients, A and B: Expected=A+B−(A×B/100)

[2] = system: CYPDI; experiment: Example I postemergence foliar-applied, greenhouse, direct seeded rice weeds; type: in vivo, Cyperus difformis L.; conditions: 4.38 gae/ha
From the text: Seeds or nutlets of the desired test plant species were planted in a soil matrix prepared by mixing a loam or sandy loam soil (e.g., 28.6 percent silt, 18.8 percent clay, and 52.6 percent sand, with a pH of about 5.8 and an organic matter content of about 1.8 percent) and calcareous grit in an 80 to 20 ratio. The soil matrix was contained in plastic pots with a volume of 1 quart and a surface area of 83.6 square centimeters (cm^2). When required to ensure good germination and healthy plants, a fungicide treatment and/or other chemical or physical treatment was applied. The plants were grown for 8-22 days in a greenhouse with an approximate 14 hr. photoperiod which was maintained at about 29° C. during the day and 26° C. during the night. Nutrients (Peters Excel® 15-5-15 5-Ca 2-Mg and iron chelate) were applied in the irrigation solution as needed and water was added on a regular basis. Supplemental lighting was provided with overhead metal halide 1000-Watt lamps as necessary. The plants were employed for testing when they reached the first through fourth true leaf stage.
Treatments consisted of the acid or esters of 4-amino-3-chloro-5-fluoro-6-(4-chloro-2-fluoro-3-methoxy-phenyl)pyridine-2-carboxylic acid (Compound A), each formulated as an SC (suspension concentrate), and various herbicidal components alone and in combination.
Other herbicidal components were applied on an acid equivalent (ae) or active ingredient (ai) basis and included acetyl coA carboxylase (ACCase)-inhibiting herbicides (cyclohexanedione and aryloxyphenoxypropionate chemical classes) cyhalofop-butyl formulated as Clincher® SF (285 gr ai/L EC), diclofop-methyl formulated as Hoelon® 3EC, fenoxaprop-p-ethyl+isoxadifen-ethyl formulated as RiceStar® HT (0.58 lb./gal EC), fenoxaprop-p-ethyl+mefenpyr diethyl formulated as Puma® IEC, metamifop formulated as Metamifop EC, haloxyfop-methyl formulated as Gallant Super®, fluazifop-p-butyl formulated as Fusilade® DX, quizalofop-p-ethyl formulated as Assure® II, profoxydim formulated as Aura® 20EC, clethodim applied as Intensity®, sethoxydim formulated as Poast®, and tralkoxydim formulated as Achieve®.
Treatment requirements were calculated based upon the rates being tested, the concentration of active ingredient or acid equivalent in the formulation, and a 12 mL application volume at a rate of 187 L/ha.
For treatments comprised of formulated compounds, measured amounts of compounds were placed individually in 25 mL glass vials and diluted in a volume of 1.25% (v/v) Agri-Dex® crop oil concentrated to obtain 12× stock solutions. […] Application solutions were prepared by adding an appropriate amount of each stock solution (e.g., 1 mL) and diluted to the appropriate final concentrations with the addition of 10 mL of an aqueous mixture of 1.25% (v/v) crop oil concentrate so that the final spray solutions contained 1.25+/−0.05% (v/v) crop oil concentrate.
All stock solutions and applications solutions were visually inspected for compound compatibility prior to application. […]
as §1, with “After approximately 3 weeks,” for “After 20-22 days,”, “the untreated” for “the control”, “injury or growth inhibition” for “injury”, “kill. […]” for “kill.”

Row | Compound | Visual Weed Control (%) - 21 DAA PHAMI Obs ([1]; Compound A Benzyl Ester 5 gai/ha) | Visual Weed Control (%) - 21 DAA PHAMI Obs ([1]; Compound A Benzyl Ester 10 gai/ha) | Visual Weed Control (%) - 20 DAA CYPDI Obs [2] | Visual Weed Control (%) - 22 DAA CYPDI Obs [2]
1 | COc1c(Cl)ccc(-c2nc(C(=O)OCc3ccccc3)c(Cl)c(N)c2F)c1F [Compound A Benzyl Ester, benzyl ester of 4-amino-3-chloro-5-fluoro-6-(4-chloro-2-fluoro-3-methoxy-phenyl)pyridine-2-carboxylic acid] | 0% | 0% |  | 
2 | COc1c(Cl)ccc(-c2nc(C(=O)O)c(Cl)c(N)c2F)c1F [Compound A Acid, 4-amino-3-chloro-6-(4-chloro-2-fluoro-3-methoxyphenyl)-5-fluoropyridine-2-carboxylic acid] |  |  | 80% | 60%
